These are literature values, as cited in EP0527762B1, “INHIBITION OF ALLOGRAFT AND […] REJECTION” (priority 1990, dated 1991).

The series deals with rabbit kidney xenografts. To be noted: rabbit kidney into cats, discordant.
For `C[C@H](CS)C(=O)N1CCC[C@H]1C(=O)O` [captopril], the “prevention of hyperacute rejection” value is on record as “not prevented”.

On to `CCOC(=O)[C@H](CCc1ccccc1)N[C@@H](C)C(=O)N1CCC[C@H]1C(=O)O` [enalapril], for which the “prevention of hyperacute rejection” value is “not prevented”. Consider `CCCCC[C@H](O)/C=C/[C@@H]1[C@H]2C/C(=C/CCCC(=O)O)O[C@H]2C[C@H]1O` [prostacyclin], for which the “prevention of hyperacute rejection” value is listed as “not prevented”. Consider `O=C(O)c1cc(=O)c2c(OCC(O)COc3cccc4oc(C(=O)O)cc(=O)c34)cccc2o1` [sodium chromoglycate], for which the “prevention of hyperacute rejection” value is “not prevented”.
